Data reported in PMC10620989, “Going beyond Binary: Rapid Identification of Protein–Protein Interaction Modulators Using a Multifragment Kinetic Target-Guided Synthesis Approach” (Journal of Medicinal Chemistry, 2023).

Key:
[1] = target: GST-tagged mouse Mcl-1-(152–309) (Mus musculus, UniProt P97287); assay: Fluorescence polarization competitive binding assay, GST-Mcl-1 / FITC-Bim-BH3; details: for inhibition at 50 µM / IC50: FP; for inhibition at 50 µM: compound at 50 µM; for IC50: GST-Mcl-1 and fluorescein-labeled Bim BH3 peptide, read-out: IC50 on Mcl-1; for inhibition at 100 µM: read-out: inhibition in the fluorescence polarization assay, fragments tested individually
Mcl-1 [2] = target: T1, Mcl-1 (Mus musculus, UniProt P97287); assay: Multifragment KTGS screen against Mcl-1 (5 TA x 38 SZ per well), LC-MS/MS; details: for Amplification coefficient 5TA x 38SZ: multifragment KTGS, 190 combinations per well, 10 μM Mcl-1, 20 μM each fragment, pH 7.4, 37 °C, 10 h, peak area with protein / without protein; for KTGS hit call against Mcl-1: multifragment incubation, 10 µM Mcl-1, LC-MS/MS traces with vs without protein
Mcl-1 [3] = target: T1, Mcl-1; assay: Binary KTGS incubation (1 TA x 1 SZ) with Mcl-1, LC-MS/MS; details: binary incubation mixtures with and without Mcl-1

T1 sequence (P97287 whole entry, the tested form may be a part): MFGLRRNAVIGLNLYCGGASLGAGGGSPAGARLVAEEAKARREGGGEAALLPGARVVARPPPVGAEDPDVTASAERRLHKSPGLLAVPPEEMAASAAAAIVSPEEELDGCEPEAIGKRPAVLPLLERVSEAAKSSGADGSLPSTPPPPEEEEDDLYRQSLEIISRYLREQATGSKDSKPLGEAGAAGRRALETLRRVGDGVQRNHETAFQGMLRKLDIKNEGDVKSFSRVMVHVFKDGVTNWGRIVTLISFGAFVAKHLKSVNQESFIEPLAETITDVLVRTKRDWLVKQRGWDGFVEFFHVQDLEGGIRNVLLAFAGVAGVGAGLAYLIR
Chain of GST-tagged mouse Mcl-1-(152–309) (P97287 152-309): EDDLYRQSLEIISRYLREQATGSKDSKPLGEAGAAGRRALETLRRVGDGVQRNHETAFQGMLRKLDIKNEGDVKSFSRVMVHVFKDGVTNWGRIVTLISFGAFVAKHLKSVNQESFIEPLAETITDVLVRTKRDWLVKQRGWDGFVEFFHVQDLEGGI

Row | SMILES | inhibition at 50 µM [1] [%] | Amplification coefficient 5TA x 38SZ (Mcl-1 [2]) | Amplification coefficient 1TA x 1SZ (Mcl-1 [3]) | IC50 [1] [µM] | KTGS hit call against Mcl-1 (Mcl-1 [2]) | inhibition at 100 µM [1] [%]
1 | COc1ccc(Cc2ccc(C(=O)NS(=O)(=O)c3ccc(-c4ccc(Oc5ccccc5)cc4)cc3)cc2)c(OC)c1OC [SZ35TA24, O=C(NS(C1=CC=C(C2=CC=C(OC3=CC=CC=C3)C=C2)C=C1)(=O)=O)C4=CC=C(CC5=CC=C(OC)C(OC)=C5OC)C=C4] | 76.4 | 9 | 8 | – | – | –
2 | Cn1cc(C(=O)c2cccs2)c2cc(C(=O)NS(=O)(=O)CCN(CCSc3ccccc3)Cc3ccc4c(c3)OCO4)ccc21 [SZ28TA45, O=C(NS(CCN(CC1=CC=C(OCO2)C2=C1)CCSC3=CC=CC=C3)(=O)=O)C4=CC(C(C(C5=CC=CS5)=O)=CN6C)=C6C=C4] | 54 | 8 | 5 | – | – | –
3 | [N-]=[N+]=NS(=O)(=O)c1ccc(CN(CCSc2ccccc2)Cc2ccc(S(=O)(=O)NC(=O)c3ccc(CCc4ccccn4)cc3)cc2)cc1 [SZ9TA17, O=C(NS(C1=CC=C(CN(CC2=CC=C(S(=O)(N=[N+]=[N-])=O)C=C2)CCSC3=CC=CC=C3)C=C1)(=O)=O)C4=CC=C(CCC5=NC=CC=C5)C=C4] | > 99 | 22 | 18 | 20.4 | – | –
4 | COc1cccc(CN(CCSc2ccccc2)Cc2ccc(S(=O)(=O)NC(=O)c3ccc(Cc4ccc(OC)c(OC)c4OC)cc3)cc2)c1 [SZ17TA24, O=C(NS(C1=CC=C(CN(CCSC2=CC=CC=C2)CC3=CC(OC)=CC=C3)C=C1)(=O)=O)C4=CC=C(CC5=CC=C(OC)C(OC)=C5OC)C=C4] | 74.1 | 9 | 5 | – | – | –
5 | CC(C)(C)c1ccc(-c2ccc(S(=O)(=O)NC(=O)c3ccc4c(ccn4Cc4ccc(C(F)(F)F)cc4C(F)(F)F)c3)cc2)cc1 [SZ11TA30, O=C(NS(C1=CC=C(C2=CC=C(C(C)(C)C)C=C2)C=C1)(=O)=O)C3=CC(C=CN4CC5=CC=C(C(F)(F)F)C=C5C(F)(F)F)=C4C=C3] | 63.6 | 12 | 7 | – | – | –
6 | Cc1cc(OCCCc2c(C(=O)NS(=O)(=O)c3ccc(C(=O)O)o3)[nH]c3c(-c4c(C)nn(C)c4C)c(Cl)ccc23)cc(C)c1Cl [compound 60, O=C(NS(C1=CC=C(C(O)=O)O1)(=O)=O)C2=C(CCCOC3=CC(C)=C(Cl)C(C)=C3)C4=CC=C(Cl)C(C5=C(C)N(C)N=C5C)=C4N2, reference compound] | > 99 | – | – | – | – | –
7 | O=C(NS(=O)(=O)c1ccc(-c2ccc(Oc3ccccc3)cc2)cc1)c1ccc(CCc2ccccn2)cc1 [SZ35TA17, O=C(NS(C1=CC=C(C2=CC=C(OC3=CC=CC=C3)C=C2)C=C1)(=O)=O)C4=CC=C(CCC5=NC=CC=C5)C=C4] | 89.2 | 9 | 9 | – | – | –
8 | O=C(NS(=O)(=O)c1ccc(-c2ccc(Oc3ccccc3)cc2)cc1)c1cccc2ccccc12 [SZ35TA7, O=C(NS(C1=CC=C(C2=CC=C(OC3=CC=CC=C3)C=C2)C=C1)(=O)=O)C4=CC=CC5=C4C=CC=C5] | 87.8 | 25 | 4 | – | – | –
9 | Cc1nc(-c2ccccc2)sc1C(=O)NS(=O)(=O)c1ccc(CN(CCSc2ccccc2)Cc2ccc3c(c2)OCO3)cc1 [SZ31TA3, O=C(NS(C1=CC=C(CN(CCSC2=CC=CC=C2)CC3=CC(OCO4)=C4C=C3)C=C1)(=O)=O)C5=C(C)N=C(C6=CC=CC=C6)S5] | > 99 | 15 | 7 | 9.4 | – | –
10 | [N-]=[N+]=NS(=O)(=O)c1ccc(CN(CCSc2ccccc2)Cc2ccc(S(=O)(=O)N=[N+]=[N-])cc2)cc1 [SZ9] | – | – | – | – | – | 13
11 | [N-]=[N+]=NS(=O)(=O)c1ccc(NCCSc2ccccc2)c([N+](=O)[O-])c1 [SZ4] | – | – | – | – | – | 23

Continued, in another order:

Row | inhibition at 50 µM [1] [%] | Amplification coefficient 5TA x 38SZ (Mcl-1 [2]) | Amplification coefficient 1TA x 1SZ (Mcl-1 [3]) | IC50 [1] [µM] | KTGS hit call against Mcl-1 (Mcl-1 [2]) | SMILES | inhibition at 100 µM [1] [%]
12 | 63.4 | 12 | 9 | – | – | NS(=O)(=O)c1ccc(CN(CCSc2ccccc2)Cc2ccc(S(=O)(=O)NC(=O)c3cccc(NCCc4ccccc4)c3)cc2)cc1 [SZ10TA44, O=C(NS(C1=CC=C(CN(CCSC2=CC=CC=C2)CC3=CC=C(S(=O)(N)=O)C=C3)C=C1)(=O)=O)C4=CC(NCCC5=CC=CC=C5)=CC=C4] | –
13 | 93.6 | 7 | 4 | – | – | COc1cccc(CN(CCSc2ccccc2)Cc2ccc(S(=O)(=O)NC(=O)c3ccc(-c4ccccn4)cc3)cc2)c1 [SZ17TA25, O=C(NS(C1=CC=C(CN(CCSC2=CC=CC=C2)CC3=CC(OC)=CC=C3)C=C1)(=O)=O)C4=CC=C(C5=NC=CC=C5)C=C4] | –
14 | 34.5 | 16 | 20 | – | – | COc1cccc(CN(CCSc2ccccc2)Cc2ccc(S(=O)(=O)NC(=O)c3ccc4c(c3)c(C(=O)c3cccs3)cn4C)cc2)c1 [SZ17TA45, O=C(NS(C1=CC=C(CN(CCSC2=CC=CC=C2)CC3=CC(OC)=CC=C3)C=C1)(=O)=O)C4=CC(C(C(C5=CC=CS5)=O)=CN6C)=C6C=C4] | –
15 | -52.4 | 56 | 8 | – | – | Cn1cc(C(=O)C2CCCCC2)c2cc(C(=O)NS(=O)(=O)c3ccc(CN(CCSc4ccccc4)Cc4ccc5c(c4)OCO5)cc3)ccc21 [SZ31TA40, O=C(NS(C1=CC=C(CN(CCSC2=CC=CC=C2)CC3=CC(OCO4)=C4C=C3)C=C1)(=O)=O)C5=CC=C6C(C(C(C7CCCCC7)=O)=CN6C)=C5] | –
16 | > 99 | 7 | 4 | 5.9 | – | O=C(NS(=O)(=O)c1ccc(CN(CCSc2ccccc2)Cc2ccc3c(c2)OCO3)cc1)c1ccc(OC(F)(F)F)cc1 [SZ31TA8, O=C(NS(C1=CC=C(CN(CCSC2=CC=CC=C2)CC3=CC(OCO4)=C4C=C3)C=C1)(=O)=O)C5=CC=C(OC(F)(F)F)C=C5] | –
17 | 58.8 | 7 | 6 | – | – | O=C(NS(=O)(=O)c1ccc(CN(CCSc2ccccc2)Cc2c(F)cccc2Cl)cc1)c1ccc(-c2ccc(F)cc2)cc1 [SZ15TA14, O=C(NS(C1=CC=C(CN(CCSC2=CC=CC=C2)CC3=C(F)C=CC=C3Cl)C=C1)(=O)=O)C4=CC=C(C5=CC=C(F)C=C5)C=C4] | –
18 | 12.4 | 20 | 40 | – | – | NS(=O)(=O)c1ccc(CN(CCSc2ccccc2)Cc2ccc(S(=O)(=O)NC(=O)c3ccc4oc(-c5ccccc5)cc4c3)cc2)cc1 [SZ10TA41, O=C(NS(C1=CC=C(CN(CCSC2=CC=CC=C2)CC3=CC=C(S(=O)(N)=O)C=C3)C=C1)(=O)=O)C4=CC(C=C(C5=CC=CC=C5)O6)=C6C=C4] | –
19 | > 99 | 8 | 4 | 8.4 | – | COc1cccc(CN(CCSc2ccccc2)Cc2ccc(S(=O)(=O)NC(=O)c3ccc(OC(F)(F)F)cc3)cc2)c1 [SZ17TA8, O=C(NS(C1=CC=C(CN(CCSC2=CC=CC=C2)CC3=CC(OC)=CC=C3)C=C1)(=O)=O)C4=CC=C(OC(F)(F)F)C=C4] | –
20 | – | – | – | – | non-hit | CC(=O)Nc1ccc(S(=O)(=O)NC(=O)Cn2c3ccccc3c3ccccc32)cc1 [SZ3TA15] | –
21 | – | – | – | – | non-hit | CC(C)(C)c1ccc(-c2ccc(S(=O)(=O)NC(=O)c3ccccc3)cc2)cc1 [SZ11TA1] | –
